# Assay results published in patent US20250304623A1, “PEPTIDES FOR INTRACELLULAR DELIVERY” (UNIVERSIDADE DE SANTIAGO DE COMPOSTELA, priority 2022, published 2025).
# *: point of attachment. NHNH2 = NN*
# Legend:
# Format in all cases: cell-based
# Hela cells = assay: RLuc pDNA delivery, robotic library screening, HeLa
# [1] = system: HepG2 cells expressing EGFP; assay: EGFP-targeting siRNA delivery (GFP silencing vs siMOCK), HepG2
# Description: To generate an EGFP expressing HeLa cell line, HeLa cells were transfected with EGFP pDNA (pEGFP-C1, Clontech) and stable transfectants were selected with 400 μg/mL of G-418 (Millipore). Green clones were selected by epifluorescence microscopy and tested for EGFP expression stability through several passages. […] All other EGFP-expressing cell lines were obtained in a similar way from parent non-EGFP-expressing cell lines.
# Cells expressing EGFP were seeded in a 96 well plate the day before the experiment at a concentration of 50,000 cell/mL (100 μL/w) in DMEM+10% FBS+1% Gln-Abt. For robotic library screening, the delivery of an EGFP-targeting siRNA (EGFP: enhanced green fluorescent protein, Ambion® Silencer® GFP Positive Control siRNA (siGFP) (AM4626)) in six different cell lines expressing EGFP was performed. […] The mixture was shaken for 30 min at room temperature (rt) before the addition to the cells. The cell medium was aspirated, and cells were washed twice with PBS. Finally, 50 μL of the solution of siRNA/amphiphile complexes were added to the cells and incubated for 4 h. After transfection, the medium was replaced by 100 μL of fresh DMEM supplemented with 10% FBS. The fluorescence knockdown was quantified after 72 h in a plate reader, by comparison with cells transfected with a non-targeting siRNA control (siMOCK, Silencer™ Negative Control No. 1 siRNA (siMOCK) (AM4611)). EGFP knockdown was compared with Lipofectamine® RNAiMAX silencing efficiency (30-60% depending on cell line, defined with a numeric value in the below tables). All experiments were done in triplicate.
# Tables 1-7: RLuc (pDNA) or EGFP (mRNA) expression levels were normalized to Lipofectamine reagents (value=1) and expressed as fold-times signal increase. In the case of siRNA, the siRNA treated cells fluorescence was compared with siMOCK control fluorescence, while Cas9-RNP mediated knockout was measured against the fluorescence of untreated cells. In both siRNA and Cas9-RNP, values are expressed as % fluorescence reduction. Amphiphile concentration was 5 μM in all cases. All experiments were performed in triplicate.
# Tables 20-25 show the mean (triplicates) percentage of GFP-silencing, accounted by fluorescence intensity decrease relative to a non-targeting siRNA (siMOCK) control, measured after the transfection of siRNA by different amphiphiles at different concentrations in a variety of cell lines. Background values, accounted by untreated control cells, were subtracted for processing.
# Hek293 cells = assay: RLuc pDNA delivery, robotic library screening, Hek293
# HCT116 cells = assay: RLuc pDNA delivery, robotic library screening, HCT116
Substance,"mean luminescent intensity (RLuc pDNA) (Hela cells; Hela, Myristoleyl, 5 μM)","mean luminescent intensity (RLuc pDNA) (Hela cells; Hela, Myristoleyl, 10 μM)","mean luminescent intensity (RLuc pDNA) (Hela cells; Hela, Myristoleyl, 15 μM)","mean luminescent intensity (RLuc pDNA) (Hela cells; Hela, Palmitoleyl, 10 μM)","mean luminescent intensity (RLuc pDNA) (Hela cells; Hela, Petroselinyl, 5 μM)","percentage of GFP-silencing relative to siMOCK ([1]; Petroselinyl, 5 μM)","mean luminescent intensity (RLuc pDNA) (Hek293 cells; Dodecanal, 10 μM)","mean luminescent intensity (RLuc pDNA) (Hek293 cells; Dodecanal, 15 μM)","mean luminescent intensity (RLuc pDNA) (Hek293 cells; Palmitoleyl, 5 μM)","mean luminescent intensity (RLuc pDNA) (Hek293 cells; Petroselinyl, 5 μM)","mean luminescent intensity (RLuc pDNA) (Hek293 cells; Petroselinyl, 10 μM)","mean luminescent intensity (RLuc pDNA) (HCT116 cells; Dodecanal, 10 μM)","mean luminescent intensity (RLuc pDNA) (HCT116 cells; Dodecanal, 15 μM)","mean luminescent intensity (RLuc pDNA) (HCT116 cells; Myristoleyl, 15 μM)","mean luminescent intensity (RLuc pDNA) (HCT116 cells; Petroselinyl, 5 μM)","mean luminescent intensity (RLuc pDNA) (HCT116 cells; Petroselinyl, 15 μM)","percentage of GFP-silencing relative to siMOCK ([1]; Myristoleyl, 5 μM)","percentage of GFP-silencing relative to siMOCK ([1]; Myristoleyl, 15 μM)","mean luminescent intensity (RLuc pDNA) (HCT116 cells; Myristoleyl, 5 μM)","mean luminescent intensity (RLuc pDNA) (HCT116 cells; Myristoleyl, 10 μM)",further results
"Ac-RHLK*RLK*RRLK*RL-NH2 (Ac-RHLKRLKRRLKRL-NH2; not fully specified (residues 4, 7, 11); printed as Ac-RHLK*RLK*RRLK*RL-NH2; also: linker on K* not given here) [13(Arg-His)]",−195 RLU,−333 RLU,−332 RLU,921 RLU,8590 RLU,21%,309302 RLU,78888 RLU,280799 RLU,258944 RLU,217264 RLU,20219 RLU,2518 RLU,−246 RLU,105576 RLU,4534 RLU,,,,,"mean luminescent intensity (RLuc pDNA) (Hela cells; Hela, Palmitoleyl, 5 μM): 5484 RLU; percentage of GFP-silencing relative to siMOCK ([1]; Palmitoleyl, 10 μM): 30%; mean luminescent intensity (RLuc pDNA) (Hek293 cells; Dodecanal, 5 μM): 265059 RLU; mean luminescent intensity (RLuc pDNA) (Hek293 cells; Palmitoleyl, 10 μM): 124471 RLU; mean luminescent intensity (RLuc pDNA) (Hek293 cells; Palmitoleyl, 15 μM): 19968 RLU; mean luminescent intensity (RLuc pDNA) (Hek293 cells; Petroselinyl, 15 μM): 101890 RLU; mean luminescent intensity (RLuc pDNA) (HCT116 cells; Dodecanal, 5 μM): 237160 RLU; mean luminescent intensity (RLuc pDNA) (HCT116 cells; Oleyl, 5 μM): 18755 RLU; mean luminescent intensity (RLuc pDNA) (HCT116 cells; Oleyl, 10 μM): 2608 RLU; mean luminescent intensity (RLuc pDNA) (HCT116 cells; Palmitoleyl, 5 μM): 244732 RLU"
"Ac-RK*LRK*K*L-NH2 (Ac-RK(NHNH2)LRK(NHNH2)K(NHNH2)L-NH2; not fully specified; printed as Ac-RK*LRK*K*L-NH2; also: K*2,K*5,K*6: native or modified lysine (ε-amide to a linker)) [Peptide 7.3]",−622 RLU,−417 RLU,−422 RLU,,,18%,11481 RLU,13690 RLU,2088 RLU,7479 RLU,2932 RLU,1049 RLU,1534 RLU,212 RLU,62932 RLU,16332 RLU,6%,3%,1060 RLU,7147 RLU,"mean luminescent intensity (RLuc pDNA) (Hela cells; HeLa, Dodecanal, 5 μM): 5231 RLU; mean luminescent intensity (RLuc pDNA) (Hela cells; Hela, Palmitoleyl, 15 μM): 19128 RLU; mean luminescent intensity (RLuc pDNA) (Hela cells; Hela, Petroselinyl, 15 μM): 12638 RLU; percentage of GFP-silencing relative to siMOCK ([1]; Dodecanal, 10 μM): 17%; percentage of GFP-silencing relative to siMOCK ([1]; Dodecanal, 15 μM): 10%; percentage of GFP-silencing relative to siMOCK ([1]; Myristoleyl, 10 μM): 5%; percentage of GFP-silencing relative to siMOCK ([1]; Oleyl, 5 μM): 7%; percentage of GFP-silencing relative to siMOCK ([1]; Oleyl, 10 μM): 9%; percentage of GFP-silencing relative to siMOCK ([1]; Palmitoleyl, 5 μM): 9%; percentage of GFP-silencing relative to siMOCK ([1]; Petroselinyl, 10 μM): 19%; mean luminescent intensity (RLuc pDNA) (Hek293 cells; Myristoleyl, 5 μM): 94318 RLU; mean luminescent intensity (RLuc pDNA) (Hek293 cells; Myristoleyl, 10 μM): 179823 RLU; mean luminescent intensity (RLuc pDNA) (HCT116 cells; Petroselinyl, 10 μM): 58529 RLU"
"Ac-RK*LRRK*L-NH2 (Ac-RK(NHNH2)LRRK(NHNH2)L-NH2; not fully specified; printed as Ac-RK*LRRK*L-NH2; also: K*2,K*6: native or modified lysine (ε-amide to a linker)) [Peptide 7.2]",−664 RLU,−678 RLU,−687 RLU,,,,8723 RLU,11358 RLU,,,,729 RLU,684 RLU,−526 RLU,,,−12%,−32%,−526 RLU,−505 RLU,"mean luminescent intensity (RLuc pDNA) (Hela cells; HeLa, Dodecanal, 5 μM): 2459 RLU; percentage of GFP-silencing relative to siMOCK ([1]; Dodecanal, 10 μM): 14%; percentage of GFP-silencing relative to siMOCK ([1]; Dodecanal, 15 μM): 7%; percentage of GFP-silencing relative to siMOCK ([1]; Myristoleyl, 10 μM): −1%; mean luminescent intensity (RLuc pDNA) (Hek293 cells; Myristoleyl, 5 μM): 5382 RLU; mean luminescent intensity (RLuc pDNA) (Hek293 cells; Myristoleyl, 10 μM): 24464 RLU; mean luminescent intensity (RLuc pDNA) (Hek293 cells; Myristoleyl, 15 μM): 8475 RLU; mean luminescent intensity (RLuc pDNA) (HCT116 cells; Dodecanal, 5 μM): 911 RLU"
"Ac-RK*LRRK*LRK*-NH2 (Ac-RK(NHNH2)LRRK(NHNH2)LRK(NHNH2)-NH2; not fully specified; printed as Ac-RK*LRRK*LRK*-NH2; also: K*2,K*6,K*9: native or modified lysine (ε-amide to a linker)) [Peptide 9.3]",3600 RLU,18554 RLU,4014 RLU,940 RLU,1035 RLU,,71221 RLU,33244 RLU,−143 RLU,−1091 RLU,−1142 RLU,1466 RLU,1854 RLU,19746 RLU,30301 RLU,76316 RLU,−11%,6%,16615 RLU,58572 RLU,"mean luminescent intensity (RLuc pDNA) (Hela cells; HeLa, Petroselinyl, 10 μM): 1228 RLU; mean luminescent intensity (RLuc pDNA) (Hela cells; Hela, Dodecanal, 10 μM): 70716 RLU; mean luminescent intensity (RLuc pDNA) (Hela cells; Hela, Dodecanal, 15 μM): 303962 RLU; mean luminescent intensity (RLuc pDNA) (Hela cells; Hela, Oleyl, 10 μM): 5404 RLU; mean luminescent intensity (RLuc pDNA) (Hela cells; Hela, Oleyl, 15 μM): 1759 RLU; mean luminescent intensity (RLuc pDNA) (Hela cells; Hela, Palmitoleyl, 15 μM): 22617 RLU; mean luminescent intensity (RLuc pDNA) (Hela cells; Hela, Petroselinyl, 15 μM): 14602 RLU; percentage of GFP-silencing relative to siMOCK ([1]; Oleyl, 10 μM): −9%; percentage of GFP-silencing relative to siMOCK ([1]; Palmitoleyl, 5 μM): −2%; percentage of GFP-silencing relative to siMOCK ([1]; Palmitoleyl, 15 μM): −2%; percentage of GFP-silencing relative to siMOCK ([1]; Petroselinyl, 15 μM): −3%; mean luminescent intensity (RLuc pDNA) (Hek293 cells; Oleyl, 15 μM): 4792 RLU; mean luminescent intensity (RLuc pDNA) (Hek293 cells; Palmitoleyl, 10 μM): −284 RLU; mean luminescent intensity (RLuc pDNA) (Hek293 cells; Palmitoleyl, 15 μM): 3126 RLU; mean luminescent intensity (RLuc pDNA) (Hek293 cells; Petroselinyl, 15 μM): 147 RLU; mean luminescent intensity (RLuc pDNA) (HCT116 cells; Oleyl, 15 μM): 1940 RLU; mean luminescent intensity (RLuc pDNA) (HCT116 cells; Palmitoleyl, 15 μM): 141026 RLU; mean luminescent intensity (RLuc pDNA) (HCT116 cells; Petroselinyl, 10 μM): 113431 RLU"
